Laboratory results taken from patent US8426406B2, “Glucocorticoid receptor agonist comprising 2,2,4-trimethyl-6-phenyl-1,2-dihydroquinoline derivatives having substituted oxy group” (Santen Pharmaceutical Co., Ltd., priority 2008, dated 2013).

Tested on: IL-6 production induced by lipopolysaccharide (LPS) in human corneal epithelial cells
Assay: Evaluation test for GR agonist activity: inhibition of LPS-induced IL-6 production in human corneal epithelial cells (HCE-T)
Type: cell-based
Conditions: Corneal epithelial cell, 10 μL of 100 μM test compound solution per well, 4 hours incubation, efficacy relative to DEX
In short: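 SV40-immortalized HCE-T cells were treated with test compound (100 μM solution, stock before dilution into well) plus LPS (1 μg/mL solution, likewise pre-dilution) for 4 hours in 10% FBS-DMEM/F12. IL-6 in supernatants was measured by HTRF. Inhibition was calculated relative to LPS-plus-DMSO and no-LPS controls, and efficacy was expressed as % of DEX inhibition.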

Row | Compound | Emax [%]
1 | COc1ccccc1NCc1c(-c2ccc(OC(=O)c3cccnc3C)cc2OC)ccc2c1C(C)=CC(C)(C)N2 [Compound 1-91, 6-[2-Methoxy-4-(2-methylpyridin-3-ylcarbonyloxy)phenyl]-5-(2-methoxyphenylaminomethyl)-2,2,4-trimethyl-1,2-dihydroquinoline] | 92
2 | COc1ccc(C(=O)OCc2c(-c3ccc(OC(=O)c4cccnc4)cc3OC)ccc3c2C(C)=CC(C)(C)N3)cc1 [Compound 1-157, 5-(4-Methoxybenzoyloxymethyl)-6-[2-methoxy-4-(pyridin-3-ylcarbonyloxy)phenyl]-2,2,4-trimethyl-1,2-dihydroquinoline] | 76
3 | COc1cc(OC(=O)c2ccncc2)ccc1-c1ccc2c(c1COC(=O)c1ccc(C)s1)C(C)=CC(C)(C)N2 [Compound 1-156, 6-[2-Methoxy-4-(pyridin-4-ylcarbonyloxy)phenyl]-5-(5-methylthiophen-2-ylcarbonyloxymethyl)-2,2,4-trimethyl-1,2-dihydroquinoline] | 90
4 | COc1cc(OC(=O)C(C)C)ccc1-c1ccc2c(c1COC(=O)c1ccc(C)s1)C(C)=CC(C)(C)N2 [Compound 1-164, 6-(4-Isopropylcarbonyloxy-2-methoxyphenyl)-5-(5-methylthiophen-2-ylcarbonyloxymethyl)-2,2,4-trimethyl-1,2-dihydroquinoline] | 85
5 | COc1ccccc1NCc1c(-c2ccc(OC(=O)c3ccc(F)cc3)cc2OC)ccc2c1C(C)=CC(C)(C)N2 [Compound 1-110, 6-[4-(4-Fluorobenzoyloxy)-2-methoxyphenyl]-5-(2-methoxyphenylaminomethyl)-2,2,4-trimethyl-1,2-dihydroquinoline] | 83
6 | CCCCS(=O)(=O)Oc1ccc(-c2ccc3c(c2COc2cc(F)ccc2C)C(C)=CC(C)(C)N3)c(OC)c1 [Compound 4-6, 6-(4-Butylsulfonyloxy-2-methoxyphenyl)-5-(5-fluoro-2-methylphenoxymethyl)-2,2,4-trimethyl-1,2-dihydroquinoline] | 82
7 | COc1cc(OC(=O)c2ccoc2)ccc1-c1ccc2c(c1COC(=O)c1ccc(C)s1)C(C)=CC(C)(C)N2 [Compound 1-148, 6-[4-(Furan-3-ylcarbonyloxy)-2-methoxyphenyl]-5-(5-methylthiophen-2-ylcarbonyloxymethyl)-2,2,4-trimethyl-1,2-dihydroquinoline] | 86
8 | CCCS(=O)(=O)Oc1ccc(-c2ccc3c(c2COc2cc(F)ccc2C)C(C)=CC(C)(C)N3)c(OC)c1 [Compound 4-3, 5-(5-Fluoro-2-methylphenoxymethyl)-6-(2-methoxy-4-propylsulfonyloxyphenyl)-2,2,4-trimethyl-1,2-dihydroquinoline] | 81
9 | COc1ccccc1NCc1c(-c2ccc(OC(=O)c3ccccc3)cc2OC)ccc2c1C(C)=CC(C)(C)N2 [Compound 1-92, 6-(4-Benzoyloxy-2-methoxyphenyl)-5-(2-methoxyphenylaminomethyl)-2,2,4-trimethyl-1,2-dihydroquinoline] | 79
10 | CCS(=O)(=O)Oc1ccc(-c2ccc3c(c2COc2cc([N+](=O)[O-])ccc2C)C(C)=CC(C)(C)N3)c(OC)c1 [Compound 4-11, 6-(4-Ethylsulfonyloxy-2-methoxyphenyl)-5-(2-methyl-5-nitrophenoxymethyl)-2,2,4-trimethyl-1,2-dihydroquinoline] | 75
11 | COc1cc(OS(=O)(=O)C2CC2)ccc1-c1ccc2c(c1COc1cc(F)ccc1C)C(C)=CC(C)(C)N2 [Compound 4-14, 6-(4-Cyclopropylsulfonyloxy-2-methoxyphenyl)-5-(5-fluoro-2-methylphenoxymethyl)-2,2,4-trimethyl-1,2-dihydroquinoline] | 80
12 | COc1cc(OC(=O)c2ccccc2OC(C)=O)ccc1-c1ccc2c(c1COC(=O)c1ccc(C)s1)C(C)=CC(C)(C)N2 [Compound 1-165, 6-[4-(2-Acetoxybenzoyloxy)-2-methoxyphenyl]-5-(5-methylthiophen-2-ylcarbonyloxymethyl)-2,2,4-trimethyl-1,2-dihydroquinoline] | 93
13 | COc1ccccc1NCc1c(-c2ccc(OS(C)(=O)=O)cc2OC)ccc2c1C(C)=CC(C)(C)N2 [Compound 4-20, 6-(2-Methoxy-4-methylsulfonyloxyphenyl)-5-(2-methoxyphenylaminomethyl)-2,2,4-trimethyl-1,2-dihydroquinoline] | 75
14 | COc1cc(OC(=O)N2CCOCC2)ccc1-c1ccc2c(c1COC(=O)c1ccc(C)s1)C(C)=CC(C)(C)N2 [Compound 6-26, 6-[2-Methoxy-4-(morpholin-4-ylcarbonyloxy)phenyl]-5-(5-methylthiophen-2-ylcarbonyloxymethyl)-2,2,4-trimethyl-1,2-dihydroquinoline] | 84
15 | COc1cc(OC(=O)c2cccnc2)ccc1-c1ccc2c(c1COc1cc(F)ccc1C)C(C)=CC(C)(C)N2 [Compound 1-8, 5-(5-Fluoro-2-methylphenoxymethyl)-6-[2-methoxy-4-(pyridin-3-ylcarbonyloxy)phenyl]-2,2,4-trimethyl-1,2-dihydroquinoline] | 94
16 | COc1ccccc1NCc1c(-c2ccc(OC(=O)c3cccnc3OC)cc2OC)ccc2c1C(C)=CC(C)(C)N2 [Compound 1-117, 6-[2-Methoxy-4-(2-methoxypyridin-3-ylcarbonyloxy)phenyl]-5-(2-methoxyphenylaminomethyl)-2,2,4-trimethyl-1,2-dihydroquinoline] | 95
17 | COc1cc(OS(=O)(=O)C2CC2)ccc1-c1ccc2c(c1COC(=O)c1ccc(C)s1)C(C)=CC(C)(C)N2 [Compound 4-34, 6-(4-Cyclopropylsulfonyloxy-2-methoxyphenyl)-5-(5-methylthiophen-2-ylcarbonyloxymethyl)-2,2,4-trimethyl-1,2-dihydroquinoline] | 86
